{"source": "paper PMC7504387", "about": "“Antimicrobial and Amyloidogenic Activity of Peptides Synthesized on the Basis of the Ribosomal S1 Protein from Thermus Thermophilus” (International Journal of Molecular Sciences, 2020)", "assay": "Thioflavine T fluorescence assay of peptide aggregation", "assay_type": "physicochemical", "details": "peptide alone, ThT 0.2 mM, 37 °C", "protocol": "Fibrils growth was monitored by thioflavine T (ThT) (Sigma-Aldrich, St. Louis, MO, USA) fluorescence. The kinetics of aggregation of peptides was studied using the method of fluorescence spectroscopy. Each kinetics graph was plotted based on the average of several results measured at different time intervals. To facilitate dissolution, all the samples of peptides were pre-dissolved in 100% DMSO, then buffers 50 mM Tris-HCl, pH 7.5, 150 mM NaCl or 20% acetic acid pH 2.0, 150 mM NaCl were added (1% final concentration DMSO) and filtered through […] membranes to remove small aggregates. ThT is the most commonly used fluorescent dye for the following amyloid formation semi-quantitatively in vitro. Free ThT has excitation and emission maxima at ∼350 and ∼450 nm, respectively (after binding to fibrils, the excitation and emission λmax change to ∼450 and ∼482–485 nm, respectively). A stock solution of ThT was prepared at a concentration of 20 mM in 50 mM Tris-HCl, pH 7.5, 150 mM NaCl or 20% acetic acid pH 2.0, 150 mM NaCl, respectively and stored at 4 °C protected from light. The final concentration of ThT was 0.2 mM, and each peptide was 0.2 mM. ThT was present in the sample during the fibril formation reaction. Measurements of ThT fluorescence were performed on a Cary Eclipse fluorescence spectrophotometer (Varian, Mulgrave, Australia) in quartz cells 3 × 3 mm at 37 °C.", "note": "Where a SMILES comes first, the peptide text is derived from it."}
{"compound": "CC[C@H](C)[C@H](NC(=O)[C@H](CCC(=O)O)NC(=O)[C@@H](NC(=O)[C@H](Cc1ccccc1)NC(=O)[C@@H](NC(=O)CNC(=O)[C@H](Cc1ccccc1)NC(=O)[C@H](CC(=O)O)NC(=O)[C@@H](NC(=O)[C@@H](NC(=O)CNC(=O)CN(C)C(=O)CNC(=O)CNC(=O)[C@H](CCCNC(=N)N)NC(=O)[C@H](CCCNC(=N)N)NC(=O)[C@H](CCCNC(=N)N)NC(=O)[C@H](CCC(N)=O)NC(=O)[C@H](CCCNC(=N)N)NC(=O)[C@H](CCCNC(=N)N)NC(=O)[C@H](CCCCN)NC(=O)[C@H](CCCCN)NC(=O)[C@@H](N)CCCNC(=N)N)C(C)C)[C@@H](C)O)C(C)C)C(C)C)C(=O)O", "note": "[R23I] (HELM PEPTIDE1{R.K.K.R.R.Q.R.R.R.G.G.[Sar].G.V.T.D.F.G.V.F.V.E.I}$$$$V2.0; N-terminus and C-terminus assumed)", "values": [{"measurement": "amyloids in peptide preparation according to ThT fluorescence", "value": "absence of R23I amyloids"}]}
